Reference: PMC10714399, “Open Source Antibiotics: Simple Diarylimidazoles Are Potent against Methicillin-Resistant Staphylococcus aureus” (ACS Infectious Diseases, 2023)
≈ marks a conversion by molar mass, not a printed value. Like-named read-outs stand apart in the source and are kept apart here.

Columns and labels:
VSE = test: In vitro antibacterial activity, MIC, VSE; assay type: cell-based
[1] = Rat hepatocyte intrinsic clearance; assay type: in vitro ADME; details: rat hepatocytes, NEU; read-out: Rat Hep CLint (NEU)
[2] = HEK293 toxicity, 96-well dose-response (UCL; MTT or resazurin, with or without recovery); assay type: cell-based, human; details: human, HEK293 cells; read-out: HEK293 CC50
Outline: (§1)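 HEK293 cells seeded 48 h beforehand (700 cells for recovery runs, 5000 for non-recovery), then exposed 24 h to 2-fold dilutions from 32 μg/mL down to […] (1% DMSO top). Viability read by MTT or resazurin, either immediately or after 72 h recovery; Dmax = 100 − viability% at 32 μg/mL.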

[3] = Distribution coefficient estimation using chromatography, gLogD (Monash); assay type: physicochemical; details: gradient HPLC retention against standard compounds, pH 7.4
Source text: Partition coefficient values (LogD) of the test compounds were estimated at pH 7.4 by the correlation of their chromatographic retention properties against the characteristics of a series of standard compounds with known partition coefficient values. The method employed is a gradient HPLC-based derivation of the method developed by Lombardo.[42] […]
c) Distribution Coefficient Estimation using Chromatography (gLogDpH)
Partition coefficient values (LogD) of the test compounds were estimated at pH 7.4 by correlation of their
chromatographic retention properties against the characteristics of a series of standard compounds with known
partition coefficient values. […]
In Vitro Intrinsic Clearance […]
Experimental results are tabulated on the following page(s).
(1 picture or pasted object on this page, not shown here)

HEK293 cells = test: HEK293 toxicity, 96-well dose-response (UCL; MTT or resazurin, with or without recovery); assay type: cell-based, human; details: 32 μg/mL
Outline: as §1

SMILES	MIC (VSE; read-out: VSE MIC (UCL))	hepatocyte CLint [1]	CC50 at 24 h [2]	chromatographic logD [3]	spread of Dmax values comparing recovery and non-recovery conditions (HEK293 cells)	MIC (VSE; read-out: VSE MIC)
c1ccc(-c2nc3n(c2-c2ccc4sccc4c2)CCC3)nc1 [OSA_000822]	4 µg/mL (≈ 12.6 µM)	> 300 µL/min/1e6 cells	2.9 µg/mL (≈ 9.14 µM)	2.3	–	–
c1ccc(-c2nc3n(c2-c2ccc4occc4c2)CCC3)nc1 [compound 821]	–	13.6 µL/min/1e6 cells	1.7 µg/mL (≈ 5.64 µM)	–	small difference	–
c1ccc(-c2nc3n(c2-c2ccc4sccc4c2)CCC3)nc1 [compound 822]	–	–	–	–	small difference	4 µg/mL (≈ 12.6 µM)
